Experimental data published in patent US20250144067A1, “PERSONALIZED STARVATION THERAPY FOR CANCER” (Faeth Therapeutics, Inc., priority 2021, published 2025).
Structures can show the parent of a compound that is named as a salt. Where two headings read alike, the source gives them in different places.

Experiments:
[1] = tested on: NCI-H292 lung cancer cells; assay: FDA drug screening, complete media vs cholesterol-free media without statin (TABLE 1); format: cell-based, human
[2] = tested on: NCI-H292 lung cancer cells; assay: FDA drug screening, complete media vs cholesterol-free media with simvastatin (TABLE 2); format: cell-based, human
[3] = NCI-H292 cells, cholesterol-free media without statin, FDA drug library screen
[4] = NCI-H292 cells, complete media, FDA drug library screen
[5] = complete vs cholesterol-free media, >0 enhanced anti-cancer activity, about 0 neutral, <0 antagonist
[6] = NCI-H292 cells, cholesterol-free media with simvastatin 0.04 μM, FDA drug library screen (TABLE 2)
[7] = NCI-H292 cells, complete media, FDA drug library screen (TABLE 2)
[8] = complete media minus cholesterol-free media + simvastatin (0.04 μM), >0 enhanced anti-cancer activity, about 0 neutral, <0 antagonist
[9] = Complete minus Cholesterol-free, >0 enhanced anti-cancer activity, about 0 neutral, <0 antagonist
[10] = Complete minus Cholesterol-free, […]
[11] = NCI-H292 cells in cholesterol-free media without statin
[12] = NCI-H292 cells in complete media
[13] = NCI-H292 cells, FDA library drug in cholesterol-free media with simvastatin 0.04 μM
[14] = NCI-H292 cells, FDA library drug in complete media
[15] = complete media vs cholesterol-free media + simvastatin (0.04 μM), […]
[16] = NCI-H292 cells, FDA drug library screen, cholesterol-free media with simvastatin 0.04 μM
[17] = NCI-H292 cells, FDA drug library screen, complete media
[18] = complete media vs cholesterol-free media + simvastatin (0.04 μM), >0 enhanced anti-cancer activity, about 0 neutral, <0 antagonist
[19] = Complete minus Cholesterol-free, greater than 0 enhanced anti-cancer activity, about 0 neutral, below 0 antagonist
[20] = NCI-H292 cells, FDA drug library screen, cholesterol-free media without statin
[21] = NCI-H292 cells, cholesterol-free media without statin
[22] = complete vs cholesterol-free media, greater than 0 enhanced anti-cancer activity, about 0 neutral, below 0 antagonists
[23] = NCI-H292 cells, cholesterol-free media with simvastatin 0.04 μM, cell growth value in FDA drug screen
[24] = NCI-H292 cells, complete media, cell growth value in FDA drug screen
[25] = complete media minus cholesterol-free media + simvastatin, >0 enhanced anti-cancer activity, about 0 neutral, <0 antagonist
[26] = NCI-H292 cells, drug in cholesterol-free media with simvastatin 0.04 μM
[27] = NCI-H292 cells, drug in complete media

COc1ccc(C(=O)N2CCN(c3ccc4c(c3)CCC(=O)N4)CC2)cc1OC [Vesnarinone]
Cholesterol-free [1, 3]: 0.9756 | Complete [1, 4]: 1.197 | Difference [1, 5]: 0.22 | Cholesterol-free media + simvastatin (0.04 μM) [2, 6]: 0.9506 | Complete Media [2, 7]: 0.9031 | Difference [2, 8]: −0.05

Nc1nc2[nH]cc(CCc3ccc(C(=O)N[C@@H](CCC(=O)O)C(=O)O)cc3)c2c(=O)[nH]1 [Pemetrexed]
Difference [1, 9]: −0.01 | Cholesterol-free [1, 3]: 0.1659 | Complete [1, 4]: 0.1596 | Cholesterol-free media + simvastatin (0.04 μM) [2, 6]: 0.2196 | Complete Media [2, 7]: 0.2004 | Difference [2, 8]: −0.02

COc1cccc2c1cc([N+](=O)[O-])c1c(C(=O)O)cc3c(c12)OCO3 [Aristolochic acid A]
Difference [1, 10]: −0.56 | Cholesterol-free [1, 11]: 1.282 | Complete [1, 12]: 0.7241 | Cholesterol-free media + simvastatin (0.04 μM) [2, 13]: 0.923 | Complete Media [2, 14]: 0.5762 | Difference [2, 15]: −0.35

CC(C)C[C@H](NC(=O)CNC(=O)c1cc(Cl)ccc1Cl)B1OC(=O)C(CC(=O)O)(CC(=O)O)O1 [Ixazomib citrate]
Cholesterol-free [1, 3]: −0.00597 | Complete [1, 4]: 0.1018 | Difference [1, 5]: 0.11 | Cholesterol-free media + simvastatin (0.04 μM) [2, 16]: 0.141 | Complete Media [2, 17]: 0.02787 | Difference [2, 18]: −0.11

CC(=O)N(CC(O)CO)c1c(I)c(C(=O)NCC(O)CO)c(I)c(C(=O)NCC(O)CO)c1I (stereo not drawn) [Iohexol]
Difference [1, 19]: −0.14 | Cholesterol-free [1, 20]: 1.062 | Complete [1, 17]: 0.9228 | Cholesterol-free media + simvastatin (0.04 μM) [2, 13]: 1.632 | Complete Media [2, 14]: 0.8317 | Difference [2, 18]: −0.80

CC(O)Cn1cnc2c1c(=O)n(C)c(=O)n2C (stereo not drawn) [Proxyphylline]
Cholesterol-free [1, 3]: 0.7713 | Complete [1, 4]: 1.327 | Difference [1, 5]: 0.56 | Cholesterol-free media + simvastatin (0.04 μM) [2, 13]: 1.208 | Complete Media [2, 14]: 0.9431 | Difference [2, 18]: −0.26

CCCCC[C@H](O)/C=C/[C@@H]1[C@@H](C/C=C\CCCC(=O)O)[C@@H](O)C[C@H]1O.NC(CO)(CO)CO [Dinoprost (tromethamine salt)]
Cholesterol-free [1, 21]: 1.291 | Complete ([1]; NCI-H292 cells, complete media): 0.9605 | Difference [1, 22]: −0.33 | Cholesterol-free media + simvastatin (0.04 μM) [2, 13]: 1.671 | Complete Media [2, 14]: 1.083 | Difference [2, 18]: −0.59

C=CC(=O)Nc1cc(Nc2nccc(-c3cn(C4CC4)c4ccccc34)n2)c(OC)cc1N(C)CCN(C)C [Almonertinib (hydrochloride)]
Difference [1, 9]: −0.07 | Cholesterol-free [1, 3]: 0.4284 | Complete [1, 4]: 0.3618 | Cholesterol-free media + simvastatin (0.04 μM) [2, 23]: 0.6861 | Complete Media [2, 24]: 0.7198 | Difference [2, 25]: 0.03

Ruxolitinib (phosphate)
Difference [1, 9]: −0.04 | Cholesterol-free [1, 3]: 0.6764 | Complete [1, 4]: 0.6315 | Cholesterol-free media + simvastatin (0.04 μM) [2, 26]: 0.8715 | Complete Media [2, 27]: 0.6795 | Difference [2, 18]: −0.19

CC(C(=O)O)c1ccc(CC2CCCC2=O)cc1 (stereo not drawn) [Loxoprofen (sodium)]
Difference [1, 9]: −0.22 | Cholesterol-free [1, 21]: 0.9775 | Complete ([1]; NCI-H292 cells, complete media): 0.7554 | Cholesterol-free media + simvastatin (0.04 μM) [2, 16]: 1.087 | Complete Media [2, 17]: 1.62 | Difference [2, 25]: 0.53

Prednisolone (disodium phosphate)
Cholesterol-free [1, 21]: 1.087 | Complete ([1]; NCI-H292 cells, complete media): 0.6422 | Difference [1, 22]: −0.44 | Cholesterol-free media + simvastatin (0.04 μM) [2, 16]: 0.4379 | Complete Media [2, 17]: 0.7375 | Difference [2, 25]: 0.30

CCOC(=O)[C@H](CCc1ccccc1)N[C@@H](C)C(=O)N1Cc2ccccc2C[C@H]1C(=O)O [Quinapril (hydrochloride)]
Cholesterol-free [1, 3]: 0.6191 | Complete [1, 4]: 0.9945 | Difference [1, 5]: 0.38 | Cholesterol-free media + simvastatin (0.04 μM) [2, 13]: 1.23 | Complete Media [2, 14]: 0.862 | Difference [2, 18]: −0.37

Loxapine (succinate)
Difference ([1]; Complete minus Cholesterol-free, greater than 0 enhanced anti-cancer activity, about 0 neutral, below 0 antagonists): −0.72 | Cholesterol-free [1, 11]: 1.602 | Complete [1, 12]: 0.8776 | Cholesterol-free media + simvastatin (0.04 μM) [2, 23]: 1.274 | Complete Media [2, 24]: 1.361 | Difference [2, 25]: 0.09

Tenofovir alafenamide hemifumarate
Cholesterol-free [1]: 0.4256 | Complete [1]: 0.5492 | Difference [1]: 0.12 | Cholesterol-free media + simvastatin (0.04 μM) [2]: 0.5107 | Complete Media [2]: 0.4195 | Difference [2]: −0.09

C#CCC(Cc1cnc2nc(N)nc(N)c2n1)c1ccc(C(=O)N[C@@H](CCC(=O)O)C(=O)O)cc1 (stereo partly drawn) [Pralatrexate]
Difference [1, 9]: 0.03 | Cholesterol-free [1, 3]: 0.04874 | Complete [1, 4]: 0.07794 | Cholesterol-free media + simvastatin (0.04 μM) [2, 16]: 0.194 | Complete Media [2, 17]: 0.0957 | Difference [2, 18]: −0.10

CSc1ccc2c(c1)N(CCC1CCCCN1C)c1ccccc1S2 (stereo not drawn) [Thioridazine (hydrochloride)]
Cholesterol-free [1, 3]: 1.045 | Complete [1, 4]: 1.124 | Difference [1, 5]: 0.08 | Cholesterol-free media + simvastatin (0.04 μM) [2, 16]: 1.073 | Complete Media [2, 17]: 0.9459 | Difference [2, 18]: −0.13

Cl.NC(CO)(CO)CO [Trometamol (hydrochloride)]
Cholesterol-free [1]: 0.9218 | Complete [1]: 0.6947 | Difference [1]: −0.23 | Cholesterol-free media + simvastatin (0.04 μM) [2]: 1.673 | Complete Media [2]: 1.379 | Difference [2]: −0.29

COC(c1ccccc1)(c1ccccc1)[C@H](Oc1nc(C)cc(C)n1)C(=O)O [Ambrisentan]
Difference [1, 19]: −0.16 | Cholesterol-free [1, 20]: 1.13 | Complete [1, 17]: 0.9703 | Cholesterol-free media + simvastatin (0.04 μM) [2, 16]: 1.296 | Complete Media [2, 17]: 1.497 | Difference [2, 25]: 0.20

CN(C)C(=O)c1ccc(S(=O)(=O)c2ccc(NC(=O)[C@@](C)(O)C(F)(F)F)c(Cl)c2)cc1 [AZD7545]
Difference [1, 10]: −0.01 | Cholesterol-free [1, 3]: 0.721 | Complete [1, 4]: 0.7125 | Cholesterol-free media + simvastatin (0.04 μM) [2, 16]: 0.8136 | Complete Media [2, 17]: 1.088 | Difference ([2]; complete media minus cholesterol-free media + simvastatin, […]): 0.27

CC1=NN(c2ccccc2)C(=O)C1 [Edaravone]
Difference [1, 19]: −0.18 | Cholesterol-free [1, 20]: 1.236 | Complete [1, 17]: 1.052 | Cholesterol-free media + simvastatin (0.04 μM) [2, 6]: 1.019 | Complete Media [2, 7]: 1.02 | Difference [2, 8]: 0.00

CS(=O)(=O)c1ccc(C(=O)Nc2ccc(Cl)c(-c3ccccn3)c2)c(Cl)c1 [Vismodegib]
Difference [1, 9]: −0.05 | Cholesterol-free [1, 3]: 1.219 | Cholesterol-free media + simvastatin (0.04 μM) [2, 6]: 1.089 | Complete Media [2, 7]: 1.052 | Difference [2, 8]: −0.04

Goserelin (acetate)
Difference [1, 10]: −0.26 | Cholesterol-free [1, 21]: 1.173 | Complete ([1]; NCI-H292 cells, complete media): 0.9084 | Cholesterol-free media + simvastatin (0.04 μM) [2, 26]: 1.497 | Complete Media [2, 27]: 1.249 | Difference [2, 15]: −0.25

OCCOCCN1CCN(C(c2ccccc2)c2ccc(Cl)cc2)CC1 (stereo not drawn) [Hydroxyzine (dihydrochloride)]
Cholesterol-free [1, 21]: 1.474 | Complete ([1]; NCI-H292 cells, complete media): 1.128 | Difference [1, 22]: −0.35 | Cholesterol-free media + simvastatin (0.04 μM) [2, 16]: 0.6407 | Difference [2, 25]: 0.53

CCC[C@@H]1C[C@@H](C(=O)N[C@@H]([C@H]2O[C@H](SC)[C@H](O)[C@@H](O)[C@H]2O)[C@H](C)Cl)N(C)C1 [Clindamycin (hydrochloride)]
Difference [1, 19]: −0.08 | Cholesterol-free [1, 20]: 1.009 | Complete [1, 17]: 0.9276 | Cholesterol-free media + simvastatin (0.04 μM) [2, 23]: 1.243 | Complete Media [2, 24]: 1.299 | Difference [2, 25]: 0.06

CC(C)(C)c1ccc(CN2CCN(C(c3ccccc3)c3ccc(Cl)cc3)CC2)cc1 (stereo not drawn) [Buclizine (dihydrochloride)]
Cholesterol-free [1, 3]: 0.6562 | Complete [1, 4]: 1.363 | Difference [1, 5]: 0.71 | Cholesterol-free media + simvastatin (0.04 μM) [2, 23]: 0.9719 | Complete Media [2, 24]: 1.018 | Difference [2, 25]: 0.05

C[C@@H]1CC(=O)NN=C1c1ccc(NN=C(C#N)C#N)cc1 [Levosimendan]
Difference [1, 9]: −0.06 | Cholesterol-free [1, 3]: 1.195 | Complete [1, 4]: 1.131 | Cholesterol-free media + simvastatin (0.04 μM) [2, 16]: 1.165 | Complete Media [2, 17]: 1.044 | Difference [2, 18]: −0.12

CC(C)CN(C[C@@H](O)[C@H](Cc1ccccc1)NC(=O)O[C@H]1CCOC1)S(=O)(=O)c1ccc(N)cc1 [Amprenavir]
Cholesterol-free [1, 3]: 0.8915 | Complete [1, 4]: 1.403 | Difference [1, 5]: 0.51 | Cholesterol-free media + simvastatin (0.04 μM) [2, 16]: 1.669 | Complete Media [2, 17]: 1.996 | Difference [2, 25]: 0.33

COC(=O)C1=C(C)NC(C)=C(C(=O)OC2CCCN(Cc3ccccc3)C2)C1c1cccc([N+](=O)[O-])c1 (stereo not drawn) [Benidipine (hydrochloride)]
Cholesterol-free [1, 21]: 0.9476 | Complete ([1]; NCI-H292 cells, complete media): 0.5889 | Difference [1, 22]: −0.36 | Cholesterol-free media + simvastatin (0.04 μM) [2, 23]: 1.054 | Difference [2, 25]: 0.11

Polidocanol
Cholesterol-free [1, 3]: 0.7606 | Complete [1, 4]: 0.9235 | Difference ([1]; complete vs cholesterol-free media, […]): 0.16 | Cholesterol-free media + simvastatin (0.04 μM) [2, 16]: 1.046 | Complete Media [2, 17]: 0.8917 | Difference [2, 15]: −0.15
